This is an account of results in EP4768489A1, “CYCLOBUTYL-CONTAINING COMPOUNDS” (Chia Tai Tianqing Pharmaceutical Group Co., Ltd., priority 2023, dated 2025).

Data set [1] can be described thus: In vitro liver microsome stability, mouse. The data set is classed as in vitro ADME. The conditions noted are these: mouse liver microsomes 0.5 mg/mL, 37 °C, NADPH. The protocol: (§1) Liver microsome incubation samples were prepared by mixing a PBS buffer (pH 7.4), a liver microsome solution (0.5 mg/mL), a test compound, and an NADPH + MgCl2 solution, followed by incubation at 37 °C and 300 rpm for 1 h. Zero-hour samples were prepared by mixing a PBS buffer (pH 7.4), a liver microsome solution (0.5 mg/mL), and a test compound. […]

Data set [2] has as its target T1, AR in VCaP cells (Homo sapiens, UniProt P10275).
T1 construct: Assay on degradation activity for AR in VCaP cells; endogenous in cells; host or cells: VCaP cells
T1 sequence (P10275 1-920): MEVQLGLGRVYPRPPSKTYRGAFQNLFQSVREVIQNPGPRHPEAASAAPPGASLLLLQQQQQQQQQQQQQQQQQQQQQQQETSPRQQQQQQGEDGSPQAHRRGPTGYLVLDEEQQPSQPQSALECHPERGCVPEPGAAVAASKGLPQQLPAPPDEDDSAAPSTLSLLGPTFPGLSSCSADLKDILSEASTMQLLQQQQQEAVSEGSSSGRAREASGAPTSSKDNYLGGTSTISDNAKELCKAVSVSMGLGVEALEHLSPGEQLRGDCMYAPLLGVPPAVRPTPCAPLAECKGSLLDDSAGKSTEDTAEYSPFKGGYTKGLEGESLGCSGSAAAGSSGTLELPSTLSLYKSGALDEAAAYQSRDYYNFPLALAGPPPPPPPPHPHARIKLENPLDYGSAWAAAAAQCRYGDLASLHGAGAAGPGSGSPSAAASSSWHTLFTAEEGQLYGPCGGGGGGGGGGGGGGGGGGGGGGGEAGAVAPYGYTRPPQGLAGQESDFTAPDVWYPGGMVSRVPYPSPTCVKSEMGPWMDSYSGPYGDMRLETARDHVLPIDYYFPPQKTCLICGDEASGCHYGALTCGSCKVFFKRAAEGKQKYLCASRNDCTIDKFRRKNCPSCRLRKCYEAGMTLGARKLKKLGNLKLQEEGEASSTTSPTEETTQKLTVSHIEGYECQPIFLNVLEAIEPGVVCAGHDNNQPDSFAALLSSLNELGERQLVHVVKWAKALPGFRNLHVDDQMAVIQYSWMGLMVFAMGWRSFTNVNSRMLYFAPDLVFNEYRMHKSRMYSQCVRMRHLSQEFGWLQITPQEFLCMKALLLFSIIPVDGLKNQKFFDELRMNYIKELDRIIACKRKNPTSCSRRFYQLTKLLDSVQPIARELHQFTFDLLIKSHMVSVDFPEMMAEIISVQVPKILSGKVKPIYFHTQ
Description: Assay on degradation activity for AR in VCaP cells (HTRF human androgen receptor detection kit). Particulars: 24 h; for DC50: AR degradation; for Dmax: maximum degradation rate. In kind it is cell-based. The protocol: (§2) The detection was carried out using the HTRF HUMAN ANDROGEN RECEPTOR DETECTION KIT (cisbio, 64ANDRPEG), 4× Supplemented Lysis buffer was prepared using the Blocking reagent stock solution (100×) and Lysis buffer stock solution (4×), and 1× Supplemented Lysis buffer was prepared using the 4× Supplemented Lysis buffer and ddH2O. Premixed antibody solutions were prepared using Detection buffer, Androgen Receptor Eu Cryptate antibody, and Androgen Receptor d2 antibody.
The cells were cultured overnight in a cell incubator. […] After the cells were oscillated for 40 min at room temperature, 16 µL of the cell lysis buffer was added to a 384-well plate, the Premixed antibody solutions were added at 4 µL/well, and the mixture was left to stand at 25 °C for 2 h. […] Table 1. Degradation activity of compounds for AR in VCaP cells
Background: TR-FRET usually uses a lanthanide donor and a delayed reading to cut background.

Data set [3] is described as follows: in vivo. The conditions noted are these: mouse.
Description: (§3) ICR mice weighing 18-22 g were randomized into groups of 9 after 3-5 days of acclimatization. The mice in the intragastric administration group were intragastrically given the test compound solution at a dose of 10 mg/kg (20 mg/kg or 30 mg/kg), and the mice in the intravenous injection administration group were intravenously injected with the test compound solution at a dose of 1 mg/kg.
(§4) Blood was collected from the orbit to prepare plasma samples to be tested.
(§5) 30 µL of each of the plasma samples to be tested and a standard curve sample were taken, and an acetonitrile solution containing an internal standard was added. Supernatants were obtained by protein precipitation, diluted with a 1:1 (v:v) mixed solution of acetonitrile and water, and then assayed by LC/MS/MS. Data were fitted using a non-compartmental model.
Data set [4] in a line: In vitro liver microsome stability, human. In kind it is in vitro ADME. The conditions noted are these: human liver microsomes 0.5 mg/mL, 37 °C, NADPH. The protocol:
as §1
(Microsomes from liver hold many membrane-bound enzymes, among them those of drug oxidation.)

The nature of data set [5]: Mouse pharmacokinetics. The conditions noted are these: for F: Mouse i.g. (0-48 h), 10 mpk vs i.v. 1 mpk.
Description: as §3, §4, §5
Data set [6] has as its target T2, AR in MDA-PCA-2B (L702H\T878A) cells (Homo sapiens, UniProt P10275, L702H/T878A).
T2 construct: Assay on degradation activity for AR in MDA-PCA-2B (L702H\T878A) cells; endogenous in cells; host or cells: MDA-PCA-2B cells
T2 sequence (P10275 1-920 L702H/T878A): T1 sequence (P10275 1-920) with L702H, T878A
Description: Assay on degradation activity for AR in MDA-PCA-2B (L702H\T878A) cells (HTRF). In kind it is cell-based. Particulars: 24 h; for DC50: AR degradation; for Dmax: maximum degradation rate. The protocol:
as §2
The cells were cultured overnight in a cell incubator. […] After the cells were oscillated for 40 min at room temperature, 16 µL of the cell lysis buffer was added to a 384-well plate, the Premixed antibody solutions were added at 4 µL/well, and the mixture was left to stand at 25 °C for 2 h. […]

For data set [7], the system named is VCaP cells. As to the kind of experiment: Assay on inhibitory activity for VCaP cell proliferation (CCK-8). The data set is classed as cell-based. Particulars: Homo sapiens, 168 h.
The mark [8] stands for this setting: ICR, mouse, plasma, iv, 1 mg/kg.
Where [9] appears, read: ICR, mouse, plasma, po, 10 mg/kg.

Positions count from the first letter of the chain named.

The DC50 is the concentration giving 50% degradation. One may read the Dmax as the greatest extent of degradation seen. A high value points to a fuller loss of target. The AUC is the area under the concentration-time curve, a measure of exposure. High values mean high exposure, low ones low exposure. As usually defined, the Vd is the apparent volume that relates the amount in the body to the concentration in plasma or blood. Low values mean confinement near the circulation, high ones extensive tissue distribution. As usually defined, the clearance is the rate of elimination divided by the concentration. A lower clearance goes with a low capacity for elimination. One may read the half-life as how long it takes for the measured level to halve. Read a high half-life as slow decline. Usually Cmax stands for the highest concentration seen after dosing. The IC50 is the concentration that inhibits the measured activity by half. Low values mean greater potency in that assay, high ones weaker potency in that assay.

On to `COc1cc(O[C@H]2C(C)(C)[C@H](NC(=O)c3ccc(N4CCC(CN5Cc6ccc7c(C8CCC(=O)NC8=O)noc7c6C5)CC4)cc3)C2(C)C)ccc1C#N` (some centres unmarked) [Compound 8], for which, in data set [1], the “MLM (mouse) Remaining amount at 60 min %” value was >70%. In data set [2], the DC50 was < 5 nM and the Dmax was > 75%. In addition, in data set [3] (iv, 1 mg/kg), the AUC at 48 h was 20200 ng·h/mL, the Vd was 1.1 L/kg, the clearance is 0.7 mL/min/kg and the half-life was 18 h. Further, in data set [3] (po, 10 mg/kg), the AUC at 48 h amounted to 77600 ng·h/mL, the Cmax was 2810 ng/mL and the half-life was 15 h. In addition, in data set [4], the “HLM (human) Remaining amount at 60 min %” value is >70%. Moreover, the F in data set [5] worked out at 37.00%. Besides, in data set [6], the DC50 was < 500 nM and the Dmax is > 70%.

Regarding `COc1cc(O[C@H]2C(C)(C)[C@H](NC(=O)c3ccc(N4CCC(CN5CCc6ccc7c(C8CCC(=O)NC8=O)noc7c6C5)CC4)cc3)C2(C)C)ccc1C#N` (some centres unmarked) [Compound 9], the “HLM (human) Remaining amount at 60 min %” value in data set [4] was >70%. Further, in data set [6], the DC50 is < 500 nM and the Dmax is > 70%.

Take `COc1cc(O[C@H]2C(C)(C)[C@H](NC(=O)c3ccc(N4CCC(CN5CCc6ccc7c(C8CCC(=O)NC8=O)noc7c6CC5)CC4)cc3)C2(C)C)ccc1C#N` (some centres unmarked) [Compound 10]: in data set [1], the “MLM (mouse) Remaining amount at 60 min %” value was >70%. Also, the IC50 in data set [7] is < 2000 nM. Besides, in data set [2], the DC50 was < 5 nM and the Dmax was > 75%. Also, in data set [3] (iv, 1 mg/kg), the AUC at 48 h was 5400 ng·h/mL, the Vd is 3.1 L/kg, the clearance was 2.83 mL/min/kg and the half-life was 13 h. Also, in data set [3] (po, 10 mg/kg), the AUC at 48 h was determined as 16200 ng·h/mL, the Cmax is 620 ng/mL and the half-life is 11 h. The “HLM (human) Remaining amount at 60 min %” value in data set [4] is recorded as >70%. In data set [5], this compound came in with an F of 30.00%. In addition, in data set [6], the DC50 is < 500 nM and the Dmax is > 70%.

For the compound `COc1cc(O[C@H]2C(C)(C)[C@H](NC(=O)c3ccc(N4CCC(CN5Cc6ccc7c(C8CCC(=O)NC8=O)noc7c6C5)CC4)nc3)C2(C)C)ccc1C#N` (some centres unmarked) [Compound 11], the “MLM (mouse) Remaining amount at 60 min %” value in data set [1] is given as >70%. Further, the IC50 in data set [7] is < 2000 nM. In addition, the values for the DC50 in data set [2] and in data set [6] were < 5 nM and < 500 nM, respectively. Further, the results for the Dmax in data set [2] and in data set [6] were > 75% and > 70%, respectively. Moreover, in data set [4], the “HLM (human) Remaining amount at 60 min %” value was >70%.

Regarding `COc1cc(O[C@H]2C(C)(C)[C@H](NC(=O)c3ccc(N4CCC(CN5CCc6ccc7c(C8CCC(=O)NC8=O)noc7c6C5)CC4)nc3)C2(C)C)ccc1C#N` (some centres unmarked) [Compound 12], the “HLM (human) Remaining amount at 60 min %” value in data set [4] is >70%. In data set [6], the DC50 was < 500 nM and the Dmax is > 70%.

As to `COc1cc(O[C@H]2C(C)(C)[C@H](NC(=O)c3ccc(N4CCC(CN5CCc6ccc7c(C8CCC(=O)NC8=O)noc7c6CC5)CC4)nc3)C2(C)C)ccc1C#N` (some centres unmarked) [Compound 13], the “MLM (mouse) Remaining amount at 60 min %” value in data set [1] is >70%. The IC50 in data set [7] is < 2000 nM. Besides, in data set [2], the DC50 is < 5 nM and the Dmax was > 75%. In data set [5] (setting [8]), the AUC turned out to be 6810 ng·h/mL, the Vd turned out to be 2 L/kg, the clearance is 2.33 mL/min/kg and the half-life is 9.7 h. In data set [5] (setting [9]), the area under the curve (AUC) came to 28000 ng·h/mL, the peak level (Cmax) was 1390 ng/mL and the half-life was 8.3 h. In data set [5], this compound yielded an F of 41.00%. Moreover, in data set [6], the DC50 is < 500 nM and the Dmax is > 70%.
